Measured values taken from the supplement of paper PMC10307832.

What was measured:
Assay in all cases: relative viability (nuclei count vs DMSO), 5 days (fraction); higher = more cells survive
A-427 = tested on: A-427
In short: (§1)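 Medians of duplicate plates are given as relative viability. That measure is the nuclei count in treated wells divided by the count in vehicle wells. Counts were taken on 4× images of lung cancer cell lines in 1536-well plates, 5 days after pin-tool dosing the day after seeding with one drug alone or a fixed anchor-drug dose plus five library-drug doses (not always all listed) in √10 steps.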

COR-L 105 = tested on: COR-L 105
In short: as §1

ChaGo-K-1 = tested on: ChaGo-K-1
In short: as §1

EKVX = tested on: EKVX
In short: as §1

EMC-BAC-2 = tested on: EMC-BAC-2
In short: as §1

EPLC-272H = tested on: EPLC-272H
In short: as §1

HARA = tested on: HARA
In short: as §1

HCC-44 = tested on: HCC-44
In short: as §1

LK-2 = tested on: LK-2
In short: as §1

LU99A = tested on: LU99A
In short: as §1

NCI-H1650 = tested on: NCI-H1650
In short: as §1

NCI-H1734 = tested on: NCI-H1734
In short: as §1

NCI-H1755 = tested on: NCI-H1755
In short: as §1

NCI-H1792 = tested on: NCI-H1792
In short: as §1

NCI-H1993 = tested on: NCI-H1993
In short: as §1

NCI-H2405 = tested on: NCI-H2405
In short: as §1

NCI-H358 = tested on: NCI-H358
In short: as §1

NCI-H460 = tested on: NCI-H460
In short: as §1

NCI-H596 = tested on: NCI-H596
In short: as §1

NCI-H647 = tested on: NCI-H647
In short: as §1

RERF-LC-KJ = tested on: RERF-LC-KJ
In short: as §1

In the case of Cc1cn(-c2cc(NC(=O)c3ccc(C)c(Nc4nccc(-c5cccnc5)n4)c3)cc(C(F)(F)F)c2)cn1 [Nilotinib] + CS(=O)(=O)N1CCN(Cc2cc3nc(-c4cccc5[nH]ncc45)nc(N4CCOCC4)c3s2)CC1 [Pictilisib] (partner 1 µM), the relative viability (A-427; first compound 0.001 µM) is reported as 0.728, the relative viability (A-427; first compound 0.01 µM) is reported as 0.731 and the relative viability (A-427; first compound 0.03162 µM) is reported as 0.658. The relative viability (A-427; first compound 0.1 µM) was 0.11, the relative viability (COR-L 105; first compound 0.001 µM) was 0.435 and the relative viability (COR-L 105; first compound 0.01 µM) was 0.407. For the same compound, the relative viability (COR-L 105; first compound 0.03162 µM) was 0.437, the relative viability (COR-L 105; first compound 0.1 µM) was 0.331 and the relative viability (ChaGo-K-1; first compound 0.001 µM) was 1.22. For the same compound, the relative viability (ChaGo-K-1; first compound 0.003162 µM) was 0.581, the relative viability (ChaGo-K-1; first compound 0.01 µM) was 0.654 and the relative viability (ChaGo-K-1; first compound 0.03162 µM) was 0.315. The relative viability (ChaGo-K-1; first compound 0.1 µM) was 0.444, the relative viability (EKVX; first compound 0.001 µM) was 0.486 and the relative viability (EKVX; first compound 0.003162 µM) was 0.588. For the same compound, the relative viability (EKVX; first compound 0.01 µM) was 0.531, the relative viability (EKVX; first compound 0.03162 µM) was 0.344 and the relative viability (EKVX; first compound 0.1 µM) was 0.552. The relative viability (EMC-BAC-2; first compound 0.001 µM) was 0.528, the relative viability (EMC-BAC-2; first compound 0.003162 µM) was 0.538 and the relative viability (EMC-BAC-2; first compound 0.01 µM) was 0.606. It also gave a relative viability (EMC-BAC-2; first compound 0.03162 µM) of 0.486, a relative viability (EMC-BAC-2; first compound 0.1 µM) of 0.479 and a relative viability (EPLC-272H; first compound 0.001 µM) of 0.273. It also gave a relative viability (EPLC-272H; first compound 0.003162 µM) of 0.308, a relative viability (EPLC-272H; first compound 0.01 µM) of 0.258 and a relative viability (EPLC-272H; first compound 0.03162 µM) of 0.338. The relative viability (EPLC-272H; first compound 0.1 µM) was 0.258, the relative viability (HARA; first compound 0.001 µM) was 0.445 and the relative viability (HARA; first compound 0.003162 µM) was 0.307. The relative viability (HARA; first compound 0.01 µM) was 0.458, the relative viability (HARA; first compound 0.03162 µM) was 0.197 and the relative viability (HARA; first compound 0.1 µM) was 0.186. The relative viability (HCC-44; first compound 0.001 µM) was 0.607, the relative viability (HCC-44; first compound 0.003162 µM) was 0.743 and the relative viability (HCC-44; first compound 0.01 µM) was 0.589. It also gave a relative viability (HCC-44; first compound 0.03162 µM) of 0.517, a relative viability (HCC-44; first compound 0.1 µM) of 0.37 and a relative viability (LK-2; first compound 0.001 µM) of 0.614. The relative viability (LK-2; first compound 0.003162 µM) was 0.451, the relative viability (LK-2; first compound 0.01 µM) was 0.577 and the relative viability (LK-2; first compound 0.03162 µM) was 0.594. The relative viability (LK-2; first compound 0.1 µM) was 0.608, the relative viability (LU99A; first compound 0.001 µM) was 0.295 and the relative viability (LU99A; first compound 0.003162 µM) was 0.412. It also gave a relative viability (LU99A; first compound 0.01 µM) of 0.328, a relative viability (LU99A; first compound 0.03162 µM) of 0.342 and a relative viability (LU99A; first compound 0.1 µM) of 0.277. It also gave a relative viability (NCI-H1650; first compound 0.001 µM) of 0.534, a relative viability (NCI-H1650; first compound 0.003162 µM) of 0.709 and a relative viability (NCI-H1650; first compound 0.01 µM) of 0.562. For the same compound, the relative viability (NCI-H1650; first compound 0.03162 µM) was 0.546, the relative viability (NCI-H1650; first compound 0.1 µM) was 0.288 and the relative viability (NCI-H1734; first compound 0.001 µM) was 0.445. The relative viability (NCI-H1734; first compound 0.003162 µM) was 0.48, the relative viability (NCI-H1734; first compound 0.01 µM) was 0.447 and the relative viability (NCI-H1734; first compound 0.03162 µM) was 0.384. It also gave a relative viability (NCI-H1734; first compound 0.1 µM) of 0.236, a relative viability (NCI-H1755; first compound 0.001 µM) of 0.445 and a relative viability (NCI-H1755; first compound 0.003162 µM) of 0.466. The relative viability (NCI-H1755; first compound 0.01 µM) was 0.411, the relative viability (NCI-H1755; first compound 0.03162 µM) was 0.34 and the relative viability (NCI-H1755; first compound 0.1 µM) was 0.261. The relative viability (NCI-H1792; first compound 0.001 µM) was 0.209, the relative viability (NCI-H1792; first compound 0.01 µM) was 0.266 and the relative viability (NCI-H1993; first compound 0.001 µM) was 0.984. It also gave a relative viability (NCI-H1993; first compound 0.003162 µM) of 0.682, a relative viability (NCI-H1993; first compound 0.01 µM) of 0.789 and a relative viability (NCI-H1993; first compound 0.03162 µM) of 0.917. The relative viability (NCI-H1993; first compound 0.1 µM) was 0.673, the relative viability (NCI-H2405; first compound 0.001 µM) was 0.426 and the relative viability (NCI-H2405; first compound 0.003162 µM) was 0.404. The relative viability (NCI-H2405; first compound 0.01 µM) was 0.315, the relative viability (NCI-H2405; first compound 0.03162 µM) was 0.296 and the relative viability (NCI-H2405; first compound 0.1 µM) was 0.345. For the same compound, the relative viability (NCI-H358; first compound 0.001 µM) was 0.375, the relative viability (NCI-H358; first compound 0.003162 µM) was 0.438 and the relative viability (NCI-H358; first compound 0.01 µM) was 0.348. It also gave a relative viability (NCI-H358; first compound 0.03162 µM) of 0.444, a relative viability (NCI-H358; first compound 0.1 µM) of 0.301 and a relative viability (NCI-H460; first compound 0.001 µM) of 0.356. It also gave a relative viability (NCI-H460; first compound 0.003162 µM) of 0.41, a relative viability (NCI-H460; first compound 0.01 µM) of 0.402 and a relative viability (NCI-H460; first compound 0.03162 µM) of 0.263. It also gave a relative viability (NCI-H460; first compound 0.1 µM) of 0.418, a relative viability (NCI-H596; first compound 0.001 µM) of 0.352 and a relative viability (NCI-H596; first compound 0.003162 µM) of 0.41. It also gave a relative viability (NCI-H596; first compound 0.01 µM) of 0.386, a relative viability (NCI-H596; first compound 0.03162 µM) of 0.393 and a relative viability (NCI-H596; first compound 0.1 µM) of 0.366. For the same compound, the relative viability (NCI-H647; first compound 0.001 µM) was 0.528, the relative viability (NCI-H647; first compound 0.003162 µM) was 0.452 and the relative viability (NCI-H647; first compound 0.01 µM) was 0.38. The relative viability (NCI-H647; first compound 0.03162 µM) was 0.43, the relative viability (NCI-H647; first compound 0.1 µM) was 0.397 and the relative viability (RERF-LC-KJ; first compound 0.001 µM) was 0.549. The relative viability (RERF-LC-KJ; first compound 0.003162 µM) was 0.572, the relative viability (RERF-LC-KJ; first compound 0.01 µM) was 0.533 and the relative viability (RERF-LC-KJ; first compound 0.03162 µM) was 0.591. The relative viability (RERF-LC-KJ; first compound 0.1 µM) was 0.55.
